Results: PubChem BioAssay (NCI)
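Five concentrations, 48 hours, 96-well plates. Definition used: TGI = concentration required for complete inhibition of growth.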

Experiments:
Assay in all cases: inhibition of tumour cell growth, NCI panel, 48 h
[1] = system: HOP-92 NSCLC
[2] = system: NCI/ADR-RES ovarian
[3] = system: MDA-N
[4] = system: EKVX NSCLC
[5] = system: SK-MEL-2 melanoma
[6] = system: NCI-H226 lung
[7] = system: M14 melanoma
[8] = system: A498 renal
[9] = system: LOX IMVI melanoma
[10] = system: RXF 393 renal

## C=C1N(C)c2ccc(S(=O)(=O)c3ccc4c(c3)C(C)(C)C(=C)N4C)cc2C1(C)C
[1]
  TGI: 41.1 µM
[2]
  TGI: > 100 µM
[3]
  TGI: > 100 µM
[4]
  TGI: > 100 µM
[5]
  TGI: > 100 µM
[6]
  TGI: > 100 µM
[7]
  TGI: > 100 µM
[8]
  TGI: > 100 µM

## COc1ccc(C[C@H]2COC(=O)[C@@H]2Cc2ccc(Br)cc2)cc1OC
[9]
  TGI: 37.8 µM
[1]
  TGI: 79.5 µM
[2]
  TGI: > 100 µM
[3]
  TGI: > 100 µM
[4]
  TGI: 56.5 µM
[5]
  TGI: 51.8 µM
[6]
  TGI: > 85.4 µM
[10]
  TGI: > 62.8 µM
[7]
  TGI: > 89.5 µM

## COc1ccc2nc3ccc(OC)cc3c(S(=O)Cc3ccccc3)c2c1 (stereo not given)
[9]
  TGI: 6.66 µM
[1]
  TGI: > 37.3 µM
[2]
  TGI: 46.7 µM
[4]
  TGI: 30.5 µM
[5]
  TGI: 33 µM
[6]
  TGI: 38.5 µM
[10]
  TGI: > 43.5 µM
[7]
  TGI: 30.1 µM
[8]
  TGI: 38.9 µM

## O=C1C(Cl)C(c2ccc(O)cc2)N1n1cnc2ccccc2c1=O (stereo not given)
[9]
  TGI: 45.3 µM
[1]
  TGI: > 100 µM
[4]
  TGI: > 100 µM
[5]
  TGI: > 63.8 µM
[6]
  TGI: > 100 µM
[10]
  TGI: 35.7 µM
[7]
  TGI: 96.8 µM
[8]
  TGI: > 100 µM

## O=C(Nc1ccccc1)OCCN=c1c2ccccc2ccc2ccccc12
[9]
  TGI: 44.5 µM
[1]
  TGI: 53.2 µM
[2]
  TGI: 65.9 µM
[3]
  TGI: 39 µM
[4]
  TGI: 92.4 µM
[5]
  TGI: 29.1 µM
[6]
  TGI: 57.1 µM
[10]
  TGI: 75.9 µM
[7]
  TGI: 40.8 µM

## Cc1cc2c(cc1Cl)SC(NNCCO)=NS2(=O)=O
[9]
  TGI: > 100 µM
[1]
  TGI: > 100 µM
[2]
  TGI: > 100 µM
[4]
  TGI: > 100 µM
[5]
  TGI: > 100 µM
[6]
  TGI: > 100 µM
[10]
  TGI: > 100 µM
[7]
  TGI: > 100 µM

## Cc1cc(C)c(NS(=O)c2ccc(Cl)cc2)c(C)c1 (stereo not given)
[1]
  TGI: > 100 µM
[2]
  TGI: > 100 µM
[3]
  TGI: > 100 µM
[4]
  TGI: > 100 µM
[6]
  TGI: > 100 µM
[10]
  TGI: > 100 µM
[7]
  TGI: > 100 µM
[8]
  TGI: > 100 µM

## O=c1[nH][nH]c(=O)n1Cc1ccccc1
[9]
  TGI: > 100 µM
[2]
  TGI: > 100 µM
[3]
  TGI: > 100 µM
[4]
  TGI: > 100 µM
[5]
  TGI: > 100 µM
[6]
  TGI: > 100 µM
[10]
  TGI: > 100 µM
[7]
  TGI: > 100 µM
[8]
  TGI: > 100 µM

## CN1CCCS/C1=C1/SC(=S)N(c2ccccc2)C1=O
[9]
  TGI: > 100 µM
[1]
  TGI: > 100 µM
[4]
  TGI: > 100 µM
[5]
  TGI: > 100 µM
[6]
  TGI: > 100 µM
[10]
  TGI: > 100 µM
[7]
  TGI: > 100 µM
[8]
  TGI: > 100 µM

## O=C1CSC(c2ccccc2)N1c1ccc(-c2ccc(-n3c(-c4ccccc4)nc4ccccc4c3=O)cc2)cc1 (stereo not given)
[9]
  TGI: > 100 µM
[1]
  TGI: > 100 µM
[2]
  TGI: > 100 µM
[3]
  TGI: > 100 µM
[4]
  TGI: > 100 µM
[5]
  TGI: > 100 µM
[7]
  TGI: > 100 µM
[8]
  TGI: > 100 µM

## COC(=O)c1cc(/C=C/C(=O)Cc2ccccc2)cn1S(=O)(=O)c1ccccc1
[9]
  TGI: > 100 µM
[2]
  TGI: > 100 µM
[3]
  TGI: > 100 µM
[4]
  TGI: > 100 µM
[5]
  TGI: > 100 µM
[10]
  TGI: > 100 µM
[7]
  TGI: > 100 µM

## CN1N=C(c2ccncc2)OC1c1cccc(F)c1 (stereo not given)
[9]
  TGI: > 100 µM
[2]
  TGI: > 100 µM
[3]
  TGI: > 100 µM
[4]
  TGI: > 100 µM
[5]
  TGI: > 100 µM
[6]
  TGI: > 100 µM
[10]
  TGI: > 100 µM
[7]
  TGI: > 100 µM
[8]
  TGI: > 100 µM
